{
  "source": "patent US20230381082A1",
  "about": "“PHOTOPROTECTIVE COSMETIC COMPOSITIONS COMPRISING XANTHOMMATIN AS AN ANTIOXIDANT AND UV-FILTER STABILIZER” (SEASPIRE, INC., priority 2020, published 2023)",
  "key": {"[1]": {"test": "Oxygen Radical Antioxidant Capacity (ORAC) assay", "details": "for AUC: single antioxidant, 40 uM; for antioxidant activity/capacity compared to known standards (Trolox, vitamin C): 90 minutes at 37° C.", "source_text": "The ORAC assay measures the antioxidant capacity of biomolecules based on the oxidation of a fluorescein probe by peroxyl radicals (Fluorescence decreases as antioxidant capacity decreases).\nThe antioxidant properties of ammonium xanthommatin (referred to herein as “xanthommatin”) in an unsaturated solution were compared to known standard antioxidants. The results of the experiments are provided in FIGS. 1-3, illustrating the relative fluorescence value (RFU) over time (in seconds) for known antioxidants Trolox (a vitamin E analogue) and ascorbic acid compared to xanthommatin. Experiments were performed using 10, 20, and 40 μM Trolox, ascorbic acid, and ammonium xanthommatin (“Xa”) and compared to performance of 1:1 Trolox:Xa (20 μM: 20 μM and 40 μM: 40 μM) and 1:1 ascorbic acid:Xa (20 μM: 20 μM and 40 μM: 40 μM).\nFor antioxidant stabilizing/boosting experiments, the antioxidizing capacity and performance of ammonium xanthommatin only and ammonium xanthommatin blended with equimolar ascorbic acid (vitamin C) or Trolox (a vitamin E analogue) over 90 minutes at 37° C. were tested using a standard Oxygen Radical Antioxidant Capacity (ORAC) Assay. The ORAC assay measured the antioxidant capacity of biomolecules based on the oxidation of a fluorescein probe by peroxyl radicals (Fluorescence decreases as antioxidant capacity decreases). The ORAC assay is described in detail at https://www.cellbiolabs.com/sites/default/files/STA-345-orac-assay-kit.pdf, the contents of which are incorporated by reference herein. […] FIG. 19 provides half life measurements of ammonium xanthommatin in solution compared to vitamin C in solution when assayed at the same concentration. […] FIGS. 20 and 21, respectively, show the performance of vitamin C and vitamin E is extended when combined with ammonium xanthommatin."}, "[2]": {"test": "UV-boosting properties: UV absorption of chemical UV filters alone and in combination", "format": "physicochemical", "details": "for reduction of avobenzone UV-A performance: filter combined with avobenzone", "source_text": "FIGS. 9-11 show the UV absorption behavior of chemical UV filters octinoxate, avobenzone, and oxybenzone, alone, in combination with avobenzone, and in combination with xanthommatin small molecules in unsaturated solution (0.03 wt %)."}, "[3]": {"tested_on": "BALB/c 3T3 mouse fibroblast cell lines", "test": "in vitro 3T3 NRU phototoxicity assay", "format": "cell-based", "description": "Given the UV filter-boosting features of xanthommatin, we next tested its cytotoxicity with and without exposure to a noncytotoxic dose of UVA light (from 315 to 400 nm and a measuring range between 0-199.9 mW/cm2). In these experiments, cytotoxicity was expressed as a concentration dependent reduction of a neutral red dye uptake within BALB/c 3T3 mouse fibroblast cell lines after treatment both with and without the presence of UVA exposure. […] Instead, the mean photo effect was calculated using Equation 5,\nwhere, the photo effect (PE) at any concentration (C) is defined as the product of the response effect (REC) and the dose effect (DEC) concentrations. MPE values of 0.019, 0.199, and 0.042 were measured for the three independent experiments with xanthommatin. […] In this figure, the grey lines represent data collected in the absence of UVA (−UVA), and the black lines represent data collected with exposure to UVA (+UVA). Data was collected for three independent experiments.\nSince the toxicological endpoint of this in vitro 3T3 NRU phototoxicity assay was developed and validated in a joint EU/COLIPA project, this assay is a well-recognized in vitro alternative to the various in vivo tests in use."}, "[4]": {"test": "UV-filter stabilizing properties: UV absorption of chemical UV filters with xanthommatin, day 1 and day 16", "format": "physicochemical", "details": "xanthommatin at about 0.01 wt %", "source_text": "This boost in stability in the presence of unsaturated solutions of xanthommatin was consistent across all chemical filters tested, including homosalate, octisalate, octocrylene, oxybenzone, and octinoxate. Between 10-100% UV filtering retention was observed over the course of weeks. Solutions including unsaturated solutions of one or more phenoxazone and/or phenoxazine compound, a precursor or derivative thereof, or a salt of any of the foregoing (e.g., xanthommatin, a precursor or derivative thereof, or a salt of any one of the foregoing, such as ammonium xanthommatin) may also boost the stability of UV-filters in the presence of solar simulated light, or solar light.\nThe UV-filter stabilizing properties of unsaturated solutions of xanthommatin were explored by comparing the behavior of UV-filter stabilizers over time to UV-filter stabilizers in combination with xanthommatin. As shown in FIGS. 4-8, the addition of unsaturated solutions of xanthommatin to solutions including oxybenzone (FIGS. 4A and 4B), avobenzone (FIGS. 5A and 5B), octi and homo-salate (FIGS. 6A and 6B), octinoxate (FIGS. 7A and 7B) and octocrylene (FIGS. 8A and 8B) increased the UV absorption between about 240 and about 310 nm on day 1, relative to the chemical UV filters alone. […]"}, "[5]": {"test": "Absorbance of xanthommatin alone and with FDA approved organic UV filters, 280-500 nm", "format": "physicochemical", "details": "0.6 mM in DMSO", "description": "The performance of ammonium xanthommatin was tested as a broad-spectrum absorber to assess whether the natural optical features of xanthommatin could be used to boost the UV performance of low (<0.2 mM) concentrations of organic UV filters. Xanthommatin's absorbance capabilities were tested alone in solution (FIG. 14) and in combination with FDA approved organic UV filters (FIGS. 15 and 16) over a spectral range of 280-500 nm. We observed a clear relationship between increasing concentrations of xanthommatin and the absorption of UV through visible light (FIG. 14). […] When xanthommatin was combined with the chemical UV filters, a significant increase in both the UVB (300 nm) and UVA (360 nm) range was achieved across all filters tested, where we observed at least a 50% increase in UVA and B performance upon addition with xanthommatin (FIG. 16)."}, "[6]": {"test": "SPF and critical wavelength of xanthommatin in solution", "format": "physicochemical", "source_text": "In certain embodiments, the compositions of the present application provide sun protection. In certain embodiments, the compositions provide an SPF of at least about 15, 30, 60, 100, or other suitable amount of protection. In certain embodiments, the amount of phenoxazone and/or phenoxazine compound, a precursor or derivative thereof, or a salt of any of the foregoing (e.g., xanthommatin, a precursor or derivative thereof, or a salt of any one of the foregoing, such as ammonium xanthommatin) in the composition may be altered or adjusted in order to provide a particular SPF. In certain embodiments, the amount of UV-filtering material (e.g., a UV-absorbing compound or a UV-scattering particle) in the composition may be altered or adjusted in order to provide a particular SPF. […]\nSPF was calculated using the derived Mansur equation (Sayre, R. M., et al., A comparison of in vivo and in vitro testing of sunscreening formulas. Photochemistry and Photobiology, 1979. 29(3): p. 559-566) according to Equation 1, SPF=CFΣ290^320EE(λ)I(λ)Abs(λ), where EE (λ) represents the erythemal effect spectrum; I(λ) is solar intensity spectrum; Abs(a) absorbance of UV-filter; CF is the correction factor (=10). […] The calculated SPF values were rounded to the nearest whole number. […]"}, "[7]": {"details": "avobenzone combinations, Xa 0.03 wt %"}},
  "note": "Several values for one entry are separate records, joined by “and”; a condition that tells them apart may be missing. Equal entries are not always repeated. Entries after “also recorded” stand apart in the source; their conditions may differ. Where two headings read alike, the source gives them in different places.",
  "data": [
    {"compound": "O=C1O[C@H]([C@@H](O)CO)C(O)=C1O", "note": "[AA, ascorbic acid, reference compound]", "values": [
      {"measurement": "AUC", "setting": "[1]", "result": 55}
    ]},
    {"compound": "COc1ccc(C(=O)c2ccccc2)c(O)c1", "note": "[Oxy control, oxybenzone]", "values": [
      {"measurement": "reduction of avobenzone UV-A performance", "setting": "[2]", "result": "about 46%"},
      {"measurement": "UV absorption 290 nm", "setting": "[2]; oxybenzone, Xa 0.03 wt %", "result": 2},
      {"measurement": "UV absorption 360 nm", "setting": "[2]; oxybenzone, Xa 0.03 wt %", "result": 0.31}
    ]},
    {"compound": "Cc1c(C)c2c(c(C)c1O)CCC(C)(C(=O)O)O2", "note": "(centres unmarked) [Trolox, reference compound]", "values": [
      {"measurement": "AUC", "setting": "[1]", "result": 55}
    ]},
    {"compound": "COc1ccc(C(=O)CC(=O)c2ccc(C(C)(C)C)cc2)cc1", "note": "[avo control, avobenzone]", "values": [
      {"measurement": "UV absorption 300 nm", "setting": "[2]; [7]", "result": 0.31},
      {"measurement": "UV absorption 360 nm", "setting": "[2]; [7]", "result": 1.49}
    ]},
    {"compound": "CN(C)CCCN1c2ccccc2Sc2ccc(Cl)cc21", "note": "[chlorpromazine, reference compound]", "values": [
      {"measurement": "EC50", "setting": "[3]; Mus musculus, BALB/c3T3, light or radiation study, +UVA, exp. 1, read-out: EC50", "result": 0.221, "unit": "µg/mL"},
      {"measurement": "PIF (photo-irritation-factor = EC50 (−UVA)/EC50(+UVA))", "setting": "[3]; exp. 1-3", "result": "37.81 and 37.74 and 40.33"}
    ]},
    {"compound": "CCCCC(CC)COC(=O)C=Cc1ccc(OC)cc1", "note": "(centres unmarked) [octinox control, octinoxate]", "values": [
      {"measurement": "reduction of avobenzone UV-A performance", "setting": "[2]", "result": "~56", "unit": "%"},
      {"measurement": "UV absorption 310 nm", "setting": "[2]; octinoxate, Xa 0.03 wt %", "result": 2.53},
      {"measurement": "UV absorption 360 nm", "setting": "[2]; octinoxate, Xa 0.03 wt %", "result": 0}
    ]},
    {"compound": "NC(CC(=O)c1cccc2oc3cc(=O)c4[nH]c(C(=O)O)cc(=O)c4c-3nc12)C(=O)O", "note": "(centres unmarked) [xanthommatin, Ammonium xanthommatin]", "values": [
      {"measurement": "effect on UV absorption and stability of chemical UV filters", "setting": "[4]", "result": "enhances the UV absorption properties of the chemical UV filters and stabilizes the chemical UV filters over time"},
      {"measurement": "absorption profile compared to pure organic UV filters", "setting": "[5]", "result": "broader profile that spanned the UVB through visible light regions"},
      {"measurement": "phototoxicity classification", "setting": "[3]", "result": "not phototoxic; also recorded: neither phototoxic nor a photoirritant"},
      {"measurement": "EC50", "setting": "[3]; −UVA", "result": "no EC50-value could be calculated"},
      {"measurement": "relative cell viability at the highest test item concentration", "setting": "[3]; −UVA controls, three independent experiments", "result": "88.5% and 99.3% and 100.6%"},
      {"measurement": "antioxidant activity/capacity compared to known standards (Trolox, vitamin C)", "setting": "[1]", "result": "comparable activity to vitamin c and vitamin e; also recorded: comparable anti-oxidizing capacity to known antioxidant standards"},
      {"measurement": "antioxidant activity/capacity compared to known standards (Trolox, vitamin C)", "setting": "[1]; listed as ammonium xanthommatin", "result": "comparable antioxidizing capacity to known antioxidant standards"},
      {"measurement": "half life in solution compared to vitamin C", "setting": "[1]; assayed at the same concentration", "result": "two times longer than vitamin C"},
      {"measurement": "relative fluorescence value (RFU) over time", "setting": "[1]; compared to antioxidant alone, 10, 20, 40 μM", "result": "maintain a high RFU value for greater lengths of time"},
      {"measurement": "extension of the performance of vitamin C when combined with ammonium xanthommatin", "setting": "[1]; equimolar blend", "result": 23, "unit": "%"},
      {"measurement": "extension of the performance of vitamin E when combined with ammonium xanthommatin", "setting": "[1]; equimolar blend", "result": 9, "unit": "%"},
      {"measurement": "AUC", "setting": "[1]", "result": 56},
      {"measurement": "boost of performance of avobenzone", "setting": "[2]; xanthommatin at 0.03 wt %", "result": "up to 109%"},
      {"measurement": "enhancement of UVB absorbing power of octinoxate and oxybenzone", "setting": "[2]; xanthommatin at 0.03 wt %, in some cases", "result": "more than 250%"},
      {"measurement": "boost of activity of avobenzone in UV-A (360 nm)", "setting": "[2]; xanthommatin at about 0.03 wt %", "result": "about 9%"},
      {"measurement": "boost of activity/performance of avobenzone in UV-B (300 nm)", "setting": "[2]; xanthommatin at about 0.03 wt %, or second filter", "result": "~250", "unit": "%"},
      {"measurement": "critical wavelength", "setting": "[6]", "result": 385, "unit": "nm"}
    ]}
  ]
}
